Among the data in PubChem BioAssay (NCI) are TGI values, retold here.

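Five compound concentrations were applied to cells in 96-well plates for 48 hours; endpoints were derived by simple linear interpolation of the resulting dose-response curve. The concentration for full growth arrest is given as TGI.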

Test in all cases: inhibition of tumour cell growth, NCI panel, 48 h
Assay [1] deals with KM12 colon.
Assay [2] has as its system NCI-H226 lung.
For assay [3], the system named is OVCAR-5 ovarian.
In assay [4] the test system is IGROV1 ovarian.
The test system of assay [5] is SF-295 CNS.
The test system of assay [6] is RXF 393 renal.
The test system of assay [7] is K-562 leukemia.
Assay [8] deals with HCT-15 colon.
Assay [9] has as its system HCC-2998 colon.
The test system of assay [10] is MDA-MB-231 breast.
Assay [11] relates to CCRF-CEM leukemia.
Assay [12] concerns EKVX NSCLC.
Assay [13] deals with MALME-3M melanoma.
The test system of assay [14] is SK-OV-3 ovarian.
Assay [15] deals with HS 578T breast.
Assay [16] relates to U251 CNS.
Assay [17] has as its system OVCAR-8 ovarian.
Assay [18] concerns SF-539 CNS.
In assay [19] the test system is HL-60(TB) leukemia.

For `NC(=O)C(=O)c1ncn(Cc2ccccc2)c1N`, the TGI in assay [1], in [2], in [3], in [4], in assay [5] and in [6] was over 100 µM in each case. Also, the TGI in assay [7], in assay [8], in [9], in [10], in [11] and in assay [12] was over 100 µM in each case. For the same compound, the TGI in [13], in assay [14], in assay [15], in assay [16], in assay [17] and in [18] was over 100 µM throughout. In addition, the TGI in [19] was over 100 µM.

Consider `C=C1CCCC2[C@](C)(CC3=C(Cl)C(=O)C=C(OC)C3=O)C(C)CC[C@]12C` (stereo partly specified), for which the TGI in assay [1] came to 8.14 µM; in [2], 14.7 µM; in assay [3], 9 µM; in [4], 4.76 µM; in assay [5] it was 14 µM; in [6], 12.1 µM. Moreover, the TGI was determined as 13.1 µM in assay [7]; 13.9 µM in assay [8]; 23.9 µM in [9]; 16.9 µM in assay [10]; 11.6 µM in assay [11]; 5.06 µM in assay [12]. Besides, the TGI in assay [13] was found to be 16.3 µM; in assay [14] it was 46.5 µM; in [15], 26 µM; in assay [16] it was 11.2 µM; in assay [17] it was 9.78 µM; in assay [18] it was 9.06 µM. This compound also yielded a TGI in [19] of 10.3 µM.

On to `CCCCCCCCCCCCCCCCCCNc1ccn(C2OC(COP(=O)(O)OCC3OC(n4cc(C)c(=O)[nH]c4=O)CC3F)C(O)C2O)c(=O)n1` (stereo unspecified), for which the TGI in assay [1] was determined as 14.3 µM; in [2], 59.5 µM; in assay [3], 6.48 µM; in [4] it was 17.9 µM; in assay [5] it was 41.9 µM; in assay [6] it was 3.84 µM. For the same compound, the TGI came to 42.5 µM in assay [7]; 15.9 µM in assay [8]; 13.5 µM in assay [9]; 48.7 µM in [10]; 12.4 µM in assay [11]; 20.7 µM in assay [12]. Further, the TGI in assay [13] was 40.9 µM; in [14], 18 µM; in assay [15], 50.3 µM; in assay [16], 15 µM; in assay [17], 29.3 µM; in [18] it was 19.9 µM. The compound also registered a TGI in assay [19] of 19.3 µM.

For the compound `COc1ccc(OC)c(CSc2ccc(OC)c(OC)c2)c1`, the TGI in assay [1], in [2], in assay [3], in assay [4], in [5] and in assay [6] was over 100 µM each time. The TGI in [7], in [8], in assay [9], in assay [10], in [11] and in [12] was over 100 µM throughout. Besides, the TGI in assay [13], in assay [14], in [15], in assay [16], in assay [17] and in [18] was over 100 µM each time. For the same compound, the TGI in assay [19] is over 100 µM.

For `COC(=O)CCC(C)[C@H]1CCC2C3C(C[C@H](OC(C)=O)[C@@]21C)[C@@]1(C)CCC2(C[C@H]1C[C@H]3OC(C)=O)OOC1(CCCC1)OO2` (stereo partly specified), the TGI was over 100 µM in [1]; over 100 µM in assay [2]; over 100 µM in [3]; 25.4 µM in assay [4]; over 100 µM in [5]; over 100 µM in [6]. Further, the TGI in [7] is over 100 µM; in assay [8], over 100 µM; in [9], over 100 µM; in assay [10], over 100 µM; in [11], over 100 µM; in [12], 56.4 µM. The TGI in assay [13], in assay [14], in assay [15], in assay [16], in assay [17] and in assay [18] was over 100 µM in each case. Also, the TGI in [19] came out at 54.3 µM.

Regarding `Cc1ccc(S(=O)(=O)CN2C(=O)C(c3ccccc3)(c3ccccc3)C23OC(c2ccc(Cl)cc2)=CC3=O)cc1` (stereo unspecified), the TGI in assay [1], in assay [2], in [3], in assay [4], in assay [5] and in assay [6] was over 10 µM in each case. Also, the TGI in assay [7], in assay [8], in assay [9], in [10], in [11] and in [12] was over 10 µM in each case. In addition, the TGI in assay [13], in assay [14], in [15], in assay [16], in [17] and in assay [18] was over 10 µM in each case. In addition, the TGI in assay [19] was over 10 µM.

As for `CC(=O)OC(CN1CCN(c2ccccn2)CC1)Cn1sc2nc(C)cc(C)c2c1=O` (stereo unspecified), the TGI was 49 µM in [1]; over 100 µM in assay [2]; 31.5 µM in assay [3]; 33.4 µM in assay [4]; over 100 µM in [5]; 35.6 µM in [6]. The TGI is 94 µM in [7]; 42.2 µM in [8]; 34.4 µM in assay [9]; 32.6 µM in assay [10]; over 100 µM in assay [11]; 32.4 µM in [12]. In addition, the TGI was 32.6 µM in assay [13]; 35.9 µM in assay [14]; 44.8 µM in [15]; 32.1 µM in assay [16]; 73.9 µM in assay [17]; 29.2 µM in assay [18]. The compound further returned a TGI in [19] of 55.5 µM.

As to `Cc1c2ccnc(C(=O)NCCN(C)C)c2cc2c3cc(O)ccc3n(C)c12`, the TGI is 5.41 µM in assay [1]; 2.26 µM in assay [2]; 6.29 µM in assay [3]; 6.72 µM in assay [4]; 3.37 µM in [5]; 2.31 µM in assay [6]. Besides, the TGI in [7] came to 2.4 µM; in assay [8], 4.39 µM; in assay [9], 2.11 µM; in assay [10], 3.35 µM; in assay [11], 0.24 µM; in [12] it was 5.18 µM. Besides, the TGI was found to be 2.06 µM in assay [13]; 1.65 µM in assay [14]; 4.03 µM in [15]; 2.43 µM in assay [16]; 4.06 µM in [17]; 1.3 µM in assay [18]. This compound also had a TGI in [19] of 0.532 µM.

Regarding `Cn1c(NNc2ccccc2)cc(=O)[nH]c1=O`, the TGI in assay [1] was 65.3 µM; in assay [2], over 100 µM; in assay [3] it was over 100 µM; in [4] it was over 100 µM; in [5], over 100 µM; in assay [6], over 100 µM. Further, the TGI in assay [7] is over 100 µM; in assay [8], over 100 µM; in assay [9], 97.5 µM; in assay [10], over 100 µM; in [11], 53 µM; in assay [12], over 100 µM. Moreover, the TGI in assay [13], in assay [14], in assay [15], in [16], in [17] and in assay [18] was over 100 µM each time. The TGI in assay [19] is over 100 µM.

For the compound `C=CCc1[nH]c2c(OCc3ccccc3)cc(N(CC=C)C(C)=O)cc2c1C`, the TGI in assay [1] came out at 30.1 µM; in assay [2] it was 37.2 µM; in [3], 27.2 µM; in [4], 28 µM; in assay [5] it was 33.5 µM; in [6] it was 26.7 µM. The TGI in [7] was over 100 µM; in assay [8], 25.6 µM; in assay [9] it was 28.4 µM; in [10], 23.2 µM; in [11], 75.9 µM; in [12], 21 µM. Moreover, the TGI in assay [13] is 30.4 µM; in assay [14], 31.9 µM; in assay [15], 30.8 µM; in assay [16] it was 25.3 µM; in assay [17], 27.4 µM; in assay [18] it was 32 µM. In [19], the TGI was determined as 39.9 µM.

As to `O=c1ccn(CC2(CO)CCCC2)c(=O)[nH]1`, the TGI in assay [1], in assay [2], in assay [3], in assay [4], in assay [5] and in assay [6] was over 100 µM each time. In addition, the TGI in assay [7], in assay [8], in [9], in assay [10], in [11] and in assay [12] was over 100 µM each time. Moreover, the TGI in [13], in assay [14], in [15], in assay [16], in assay [17] and in [18] was over 100 µM in each case. Further, the TGI in assay [19] is over 100 µM.

As for `Cc1sc2[nH]c(=O)oc(=O)c2c1C`, the TGI in [1] is over 93.3 µM; in assay [2], over 100 µM; in assay [3], over 100 µM; in [4], over 100 µM; in assay [5], over 100 µM; in assay [6], over 100 µM. Further, the TGI in assay [7], in [8], in [9], in assay [10], in assay [11] and in assay [12] was over 100 µM each time. Moreover, the TGI was over 100 µM in assay [13]; over 100 µM in assay [14]; over 71 µM in [15]; over 100 µM in assay [16]; over 100 µM in [17]; over 100 µM in [18]. Besides, in [19], the TGI was over 100 µM.

Consider `CCCCc1ccc(Nc2nc(Cl)c3ncn(COCCOC(C)=O)c3n2)cc1`, for which the TGI in assay [1] stood at 41.3 µM; in assay [2] it was 50.7 µM; in assay [3], 35.5 µM; in assay [4], 31.6 µM; in [5], 33.9 µM; in assay [6], 38.2 µM. The TGI is 55.5 µM in assay [7]; 31.6 µM in [8]; 24.5 µM in assay [9]; 30.6 µM in [10]; over 100 µM in assay [11]; 20.3 µM in [12]. Also, the TGI in assay [13] stood at 31.7 µM; in assay [14], 76.9 µM; in [15] it was 52.7 µM; in [16], 35 µM; in assay [17], 32.6 µM; in assay [18] it was 63.3 µM. Further, the TGI in [19] was 45.6 µM.

For the compound `CCCC(=O)NC(Nc1cc(C)ccn1)(C(=O)OCC)C(F)(F)F` (stereo unspecified), the TGI in assay [1], in [2], in assay [3], in assay [4], in assay [5] and in assay [6] was over 100 µM in each case. Besides, the TGI in assay [7], in assay [8], in assay [9], in [10], in assay [11] and in assay [12] was over 100 µM each time. In addition, the TGI in assay [13], in [14], in [15], in [16], in assay [17] and in [18] was over 100 µM in each case. In addition, the TGI in assay [19] is over 100 µM.
